Counter-ions that a name gives are not always drawn.

The target in one assay is Bcl-2 protein (histag-Bcl-2, UniProtKB P10415) (Homo sapiens (Human), UniProt P10415). Kind of assay: Inhibition of Bcl-2 by the fluorescence polarisation technique. It is filed as binding. As to conditions: fluorescence polarisation test; method A, or method B where underlined (underlining not visible); read-out: IC50 (nM) Bcl-2 FP. The text has this:
Inhibition of Bcl-2 by the fluorescence polarisation technique

For assay [1], the system named is RS4;11 leukaemia tumour line. Kind of assay: In vitro cytotoxicity, Microculture Tetrazolium Assay (MTT). It is filed as cell-based. As to conditions: Homo sapiens; RS4;11 cells, 48 hours exposure. The protocol: The cytotoxicity studies were carried out on the RS4;11 leukaemia tumour line.
The cells are distributed onto microplates and exposed to the test compounds for 48 hours. The cell viability is then quantified by a colorimetric assay, the Microculture Tetrazolium Assay (Cancer Res., 1987, 47, 939-942).

Chain of Bcl-2 protein (P10415 whole entry): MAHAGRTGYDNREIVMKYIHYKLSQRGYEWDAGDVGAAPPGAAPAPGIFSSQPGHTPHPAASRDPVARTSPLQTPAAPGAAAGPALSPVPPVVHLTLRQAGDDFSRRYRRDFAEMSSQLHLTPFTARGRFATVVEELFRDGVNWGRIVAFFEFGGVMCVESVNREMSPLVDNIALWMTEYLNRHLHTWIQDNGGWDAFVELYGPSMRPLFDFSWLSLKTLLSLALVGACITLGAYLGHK

As a reminder, the IC50 is the concentration needed to halve the response being measured. With `Cc1cc(C(=O)N(c2ccccc2)c2ccc(O)cc2)cn1-c1cc(Br)ccc1C(=O)N1Cc2ccccc2C[C@H]1CN1CCN(C)CC1` [Example 22, 1-(5-Bromo-2-{[(3S)-3-[(4-methylpiperazin-1-yl)methyl]-3,4-dihydroisoquinolin-2(1H)-yl]carbonyl}phenyl)-N-(4-hydroxyphenyl)-5-methyl-N-phenyl-1H-pyrrole-3-carboxamide], the IC50 at Bcl-2 protein stood at 10.7 nM; in assay [1] it was 142 nM.
Consider `CC(C)CC1Oc2cc(C(=O)N3Cc4ccccc4C[C@H]3CN)c(-n3cc(C(=O)N(c4ccccc4)c4ccc(O)cc4)c4ccccc43)cc2O1` (stereo partly drawn) [Example 158, 1-{6-[(3S)-3-(Aminomethyl)-1,2,3,4-tetrahydroisoquinoline-2-carbonyl]-2-(2-methylpropyl)-2H-1,3-benzodioxol-5-yl}-N-(4-hydroxyphenyl)-N-phenyl-1H-indole-3-carboxamide], for which the IC50 on Bcl-2 protein came out at 54.1 nM; in assay [1], 834 nM.
Consider `Cc1ccc(N(C(=O)c2cn(-c3cc4c(cc3C(=O)N3Cc5ccccc5C[C@H]3CN3CCN(C)CC3)OCO4)c3ccccc23)c2ccc3[nH]ccc3c2)cc1` [Example 55, N-(1H-Indol-5-yl)-N-(4-methylphenyl)-1-(6-{[(3S)-3-[(4-methylpiperazin-1-yl)methyl]-3,4-dihydroisoquinolin-2(1H)-yl]carbonyl}-1,3-benzodioxol-5-yl)-1H-indole-3-carboxamide], for which the IC50 amounted to 57.2 nM on Bcl-2 protein and 1020 nM in assay [1].
As for `Cc1ccc(N(C(=O)c2cn(-c3cc4c(cc3C(=O)N3Cc5ccccc5C[C@H]3CN3CCN(C)CC3)OCO4)c3ccccc23)c2ccc3[nH]ncc3c2)cc1` [Example 68, N-(1H-Indazol-5-yl)-N-(4-methylphenyl)-1-(6-{[(3S)-3-[(4-methylpiperazin-1-yl)methyl]-3,4-dihydroisoquinolin-2(1H)-yl]carbonyl}-1,3-benzodioxol-5-yl)-1H-indole-3-carboxamide hydrochloride], the results for the IC50 (at Bcl-2 protein; in assay [1]) were 79.7 nM and 856 nM, respectively.
As to `Cc1cc(C(=O)N(c2ccccc2)c2ccc(O)cc2)cn1-c1cc(Br)ccc1C(=O)N1Cc2ccccc2C[C@H]1CN1CCOCC1` [Example 42, 1-(5-Bromo-2-{[(3S)-3-(morpholin-4-ylmethyl)-3,4-dihydroisoquinolin-2(1H)-yl]carbonyl}phenyl)-N-(4-hydroxyphenyl)-5-methyl-N-phenyl-1H-pyrrole-3-carboxamide], the values for the concentration for half-maximal inhibition (IC50) (on Bcl-2 protein; in assay [1]) were 23.1 nM and 353 nM, respectively.
Regarding `CN1CCN(C[C@@H]2Cc3ccccc3CN2C(=O)c2cc3c(cc2-n2cc(C(=O)N(c4ccc(O)cc4)c4ccc(OC(F)(F)F)cc4)c4ccccc42)OCO3)CC1` [Example 51, N-(4-Hydroxyphenyl)-1-(6-{[(3S)-3-[(4-methylpiperazin-1-yl)methyl]-3,4-dihydroisoquinolin-2(1H)-yl]carbonyl}-1,3-benzodioxol-5-yl)-N-[4-(trifluoro-methoxy)phenyl]-1H-indole-3-carboxamide], the IC50 is 6.9 nM on Bcl-2 protein and 155 nM in assay [1].
For `Cc1cc(C(=O)N(c2ccc(O)cc2)c2ccc(O)cc2)cn1-c1cc2c(cc1C(=O)N1Cc3ccccc3C[C@H]1CN1CCN(C)CC1)OCO2` [Example 83, N,N-bis(4-Hydroxyphenyl)-5-methyl-1-(6-{[(3S)-3-[(4-methylpiperazin-1-yl)methyl]-3,4-dihydroisoquinolin-2(1H)-yl]carbonyl}-1,3-benzodioxol-5-yl)-1H-pyrrole-3-carboxamide] the same measures were 3.7 nM and 350 nM.
The like results for `COc1ccc(C(=O)N2Cc3ccccc3C[C@H]2CN2CCN(C)CC2)c(-n2cc(C(=O)N(c3ccccc3)c3ccc(O)cc3)c3ccccc32)c1` [Example 168, N-(4-Hydroxyphenyl)-1-{5-methoxy-2-[(3S)-3-[(4-methylpiperazin-1-yl)methyl]-1,2,3,4-tetrahydroisoquinoline-2-carbonyl]phenyl}-N-phenyl-1H-indole-3-carboxamide dihydrochloride] were, in that order, 11.4 nM and 188 nM.
The like results for `NC[C@@H]1Cc2ccccc2CN1C(=O)c1ccc(Cl)cc1-n1cc(C(=O)N(c2ccccc2)c2ccc(O)cc2)c2ccccc21` [Example 156, 1-{2-[(3S)-3-(Aminomethyl)-1,2,3,4-tetrahydroisoquinoline-2-carbonyl]-5-chlorophenyl}-N-(4-hydroxyphenyl)-N-phenyl-1H-indole-3-carboxamide] were, in that order, 11.7 nM and 450 nM.
On to `CN1CCN(C[C@@H]2Cc3ccccc3CN2C(=O)c2ccc(Cl)cc2-n2cc(C(=O)N(c3ccc(O)cc3)c3ccc4[nH]ccc4c3)c3ccccc32)CC1` [Example 72, 1-(5-Chloro-2-{[(3S)-3-[(4-methylpiperazin-1-yl)methyl]-3,4-dihydroisoquinolin-2(1H)-yl]carbonyl}phenyl)-N-(4-hydroxyphenyl)-N-(1H-indol-5-yl)-1H-indole-3-carboxamide], for which the IC50 came to 4.5 nM at Bcl-2 protein and 43.4 nM in assay [1].
As for `Cc1cc(C(=O)N(c2ccccc2)c2ccc(O)cc2)cn1-c1cc(Cl)ccc1C(=O)N1Cc2ccccc2C[C@H]1CN(C)C` [Example 13, 1-(5-Chloro-2-{[(3S)-3-[(dimethylamino)methyl]-3,4-dihydroisoquinolin-2(1H)-yl]carbonyl}phenyl)-N-(4-hydroxyphenyl)-5-methyl-N-phenyl-1H-pyrrole-3-carboxamide], the IC50 was found to be 16.2 nM on Bcl-2 protein and 462 nM in assay [1].
The like results for `CN1CCN(C[C@@H]2Cc3ccccc3CN2C(=O)c2cc3c(cc2-n2cc(C(=O)N(c4ccccc4)c4ccc(O)c(F)c4)c4ccccc42)OCO3)CC1` [Example 34, N-(3-Fluoro-4-hydroxyphenyl)-1-(6-{[(3S)-3-[(4-methylpiperazin-1-yl)methyl]-3,4-dihydroisoquinolin-2(1H)-yl]carbonyl}-1,3-benzodioxol-5-yl)-N-phenyl-1H-indole-3-carboxamide] were, in that order, 7.7 nM and 133 nM.
For the compound `Cc1cc(C(=O)N(c2ccccc2)c2ccc(O)cc2)cn1-c1cc(O)ccc1C(=O)N1Cc2ccccc2C[C@H]1CN1CCN(C)CC1` [Example 17, 1-(5-Hydroxy-2-{[(3S)-3-[(4-methylpiperazin-1-yl)methyl]-3,4-dihydroisoquinolin-2(1H)-yl]carbonyl}phenyl)-N-(4-hydroxyphenyl)-5-methyl-N-phenyl-1H-pyrrole-3-carboxamide], the results for the IC50 (at Bcl-2 protein; in assay [1]) were 11.4 nM and 1010 nM, respectively.
For `CN1CCN(C[C@@H]2Cc3ccccc3CN2C(=O)c2cc3c(cc2-n2cc(C(=O)N(c4ccc(O)cc4)c4cccc(Oc5ccccc5)c4)c4ccccc42)OCO3)CC1` [Example 39, N-(4-Hydroxyphenyl)-1-(6-{[(3S)-3-[(4-methylpiperazin-1-yl)methyl]-3,4-dihydroisoquinolin-2(1H)-yl]carbonyl}-1,3-benzodioxol-5-yl)-N-(3-phenoxyphenyl)-1H-indole-3-carboxamide hydrochloride] the same measures were 12.5 nM and 263 nM.
On to `NC[C@@H]1Cc2ccccc2CN1C(=O)c1cc(NC(=O)CSc2ccccc2)ccc1-n1cc(C(=O)N(c2ccccc2)c2ccc(O)cc2)c2ccccc21` [Example 157, 1-{2-[(3S)-3-(Aminomethyl)-1,2,3,4-tetrahydroisoquinoline-2-carbonyl]-4-[2-(phenylsulphanyl)acetamido]phenyl}-N-(4-hydroxyphenyl)-N-phenyl-1H-indole-3-carboxamide], for which the IC50 on Bcl-2 protein is 16.1 nM; in assay [1], 487 nM.
The like results for `CN1CCN(C[C@@H]2Cc3ccccc3CN2C(=O)c2ccc(Br)cc2-n2cc(C(=O)N(c3ccc(O)cc3)c3ccc(O)cc3)c3ccccc32)CC1` [Example 54, 1-(5-Bromo-2-{[(3S)-3-[(4-methylpiperazin-1-yl)methyl]-3,4-dihydroisoquinolin-2(1H)-yl]carbonyl}phenyl)-N,N-bis(4-hydroxyphenyl)-1H-indole-3-carboxamide] were, in that order, 20 nM and 103 nM.
The like results for `Cc1cc(C(=O)N(c2ccc(O)cc2)c2ccc3c(ccn3C)c2)cn1-c1cc2c(cc1C(=O)N1Cc3ccccc3C[C@H]1CN(C)C)OCO2` [Example 94, 1-(6-{[(3S)-3-[(Dimethylamino)methyl]-3,4-dihydroisoquinolin-2(1H)-yl]carbonyl}-1,3-benzodioxol-5-yl)-N-(4-hydroxyphenyl)-5-methyl-N-(1-methyl-1H-indol-5-yl)-1H-pyrrole-3-carboxamide hydrochloride] were, in that order, 7.9 nM and 118 nM.
For `NC[C@@H]1Cc2ccccc2CN1C(=O)c1cc(NC(=O)CSc2ccccc2)ccc1-n1nc(C(=O)N(c2ccccc2)c2ccccc2)c2ccccc21` [Example 149, 1-{2-[(3S)-3-(Aminomethyl)-1,2,3,4-tetrahydroisoquinoline-2-carbonyl]-4-[2-(phenylsulphanyl)acetamido]phenyl}-N,N-diphenyl-1H-indazole-3-carboxamide], the IC50 at Bcl-2 protein worked out at 21.6 nM; in assay [1], 340 nM.
For `CN1CCN(C[C@@H]2Cc3ccccc3CN2C(=O)c2cc3c(cc2-n2cc(C(=O)N(c4ccc(O)c(Cl)c4)c4ccc5c(ccn5C)c4)c4ccccc42)OCO3)CC1` [Example 81, N-(3-Chloro-4-hydroxyphenyl)-N-(1-methyl-1H-indol-5-yl)-1-(6-{[(3S)-3-[(4-methylpiperazin-1-yl)methyl]-3,4-dihydroisoquinolin-2(1H)-yl]carbonyl}-1,3-benzodioxol-5-yl)-1H-indole-3-carboxamide hydrochloride] the same measures were 83.8 nM and 652 nM.
